Reference: patent US5053006A, “Method for the permanent occlusion of arteries” (priority 1990, dated 1991)
Several values for one entry are separate records, joined by “and”; a condition that tells them apart may be missing. Equal entries are not always repeated.

Key:
common carotid artery = assay: Argon laser photothrombotic occlusion of common carotid artery (Example 1); assay type: in vivo, rat (male Wistar); conditions: 514.5 nm argon laser
From the text: Male Wistar rats, each weighing 280 to 330 gm, were anesthetized with 1.5% halothane and maintained on a 70:30 mixture of nitrous oxide and oxygen delivered by a closely fitting Mylar face mask (Watson et al., J. Neurosurg., 66:748-754, 1987, the disclosure of which is hereby incorporated by reference and relied upon). After separation of the temporal musculature, the middle cerebral artery was exposed via a small subtemporal craniectomy produced by a high-speed drill under an operating microscope; the dura was left intact. The common carotid arteries were exposed bilaterally by a midline incision extending from the mental process to the sternal notch; the sternocleidomastoid muscle was then retracted laterally to expose the underlying artery. Bleeding from the operative site was controlled with pressure and Gelfoam. The animal was then prepared for irradiation by filling the surgical cavity with saline, just submerging the exposed blood vessel. The saline solution was kept clear by frequent suction and irrigation. The femoral arteries were exposed by bilateral inguinal incisions and were prepared for irradiation in a fashion similar to that described above.
As assessed by observation of rose bengal fluorescence, thrombus development in the common carotid or femoral arteries followed a course similar to that observed in the middle cerebral artery, except that the thrombus appeared as a […] as viewed through the blood vessel wall. Intense scattering of the incident laser light was also noted at about the time that arterial pulsations at the level of irradiation ceased.
Ultrastructural studies were carried out at either 30 minutes or 7 days following irradiation. Animals were perfused transcardially with 0.9% sodium chloride solution followed by 2% paraformaldehyde and 2.5% glutaraldehyde in a 0.1 M sodium phosphate buffer. Perfusion pressure was monitored throughout the procedure and was maintained at 100 mm Hg. After perfusion fixation, the femoral and common carotid arteries were isolated and placed in fixative for an additional 2 hours. […]

[1] = system: conjunctival epithelium on vascularized corneas; assay: Epithelial differentiation on photothrombosed corneas (goblet cells, cytology, histology); assay type: in vivo, New Zealand albino rabbit
Description: In order to study the goblet cell density on the vascularized corneas before and after photothrombosis, corneal flat-mounts were prepared and stained according to usual methods (Tseng et al., Invest. Opthalmol. Vis. Sci., 25:1168-76, 1984). The pattern of goblet cell disappearance was then analyzed and specifically correlated with the treated area.
The epithelial phenotype of the control and treated corneas was then studied by impression cytology (Tseng, Ophthalmology, 92:728-33, 1985) and routine histology using hematoxylin and PAS. In addition, immunofluorescent stainings of the frozen sections using a previously developed anti-rabbit ocular mucin monoclonal antibody [anti-ROM] was performed to study mucin expression.

corneal neovasculature = assay type: in vivo, New Zealand white rabbit
From the text: Nine New Zealand white strain rabbits weighting 1 to 2 kg were rendered hypercholesterolemic by foods that contained high levels of cholesterol, as described in Stock et. al., Arch. Ophthalmol., 103:726-730, 1985; and Mendelsohn et al., Ophthalmic Surg., 17:502-508, 1986. Eight days after commencement of the high-cholesterol diet, corneal sutures were implanted in both eyes according to the surgical procedure described in Mendelsohn et al., Ophthalmic Surg., 17:502-508, 1986.
On day 22, slit-lamp photographs and fluorescein angiograms were obtained of all corneas (Mendelsohn et al., Arch. Ophthalmol., 105:983-988, 1987, the disclosure of which is hereby incorporated by reference and relied upon). On the next day, one eye of each rabbit underwent laser surgery, with the other eye serving as a comparative control. Rose bengal dye was dissolved at a concentration of 30 mg/ml in 0.9% saline solution. For the initial injection, the dye solution was administered at a total body concentration of 45 mg/kg. For the two animals in which the procedure took longer than 25 minutes, a booster injection of 15 mg/kg was administered. Irradiations of corneal vessels were carried out with an argon ion laser (Model 95, Cooper Laser-Sonica, Sunnyvale, Calif.) operated in the TEM00 mode at 514.5 nm. The beam was directed toward an aluminized mechanical shutter (AW Vincent Associates, Rochester, NY), which reflected it at a right angle through a 514.5-nm custom interference filter with a transmittance of 92% (Omega Optical, Brattleboro, VT) and then through a fused silica lens with a focal length of 7.5 cm for focusing into a 2.5-m fiberoptic cable 400 μm in diameter. In the optical fiber, the gaussian input beam profile was converted into an output beam. The output was collimated by a plano convex lens 3.5 cm in focal length and focused with a plano convex lens with a focal length of 1.0 cm. The lenses were mounted in a beam telescope attached to an X-Y positioning device (Daedal Inc., Harrison City, Pa.). The beam diameter was measured with a calibrated reticle in the ocular of a ×20 operating microscope. By observing, through a 514.5-nm rejection filter, the fluorescence of a white card impregnated with rhodamine B, the minimum diameter of the organe fluorescent spot at the focal point was determined to be 63 μm. Combining the transmission efficiencies of the three uncoated lenses (92% per lens, 76% total transmission) with those of the optical fiber and interference filter yielded a system transmission efficiency of 61.5%. This reduced the incident power level of the laser from 215 mW to an effective power level of 132 mW; this corresponded to an incident intensity at the focal point of 4.23 kW/cm^2 . During shutter closure, irradiations were carried out in 0.2-s intervals. When the shutter was opened, the low-power beam, which was reflected off an optical flat and through the optical system, was used for aligning the next vessel selected for irradiation.
One eye of each rabbit was subjected to laser applications that were directed toward the vascular branching points of the limbal and corneal feeder vessels adjacent to the sites of lipid deposits. The irradiated blood vessel segment was observed through the ×20 operating microcope fitted with the 514.5-nm rejection band interference filter. Initially, the irradiated segment appeared yellow-orange because the fluorescence of rose bengal had been absorbed into erythrocyte plasma membranes and plasma proteins. As platelets accumulated, the fluorescence became yellowish and less intense. The color gradually disappeared due to the exclusion of red blood cells, indicating occlusion of the vessel. A striking event that preceded the thrombus was intense vasoconstriction at the site of irradiation. Constriction of the vessel could be observed following the initial one to three laser shots in each segment. […]

[2] = common carotid and femoral arteries

From the text for arteries: The method utilizes an intravascular photochemical reaction to induce structural damage to normally non-thrombogenic vascular endothelium. The photochemical process is mediated by rose bengal, a potent photosensitizing dye injected into the bloodstream. Absorption by the injected rose bengal dye of light at a wavelength sufficient to electronically excite the rose bengal molecules induces photochemical injury via singlet oxygen peroxidation reactions in the vascular endothelium at the point of interaction of the rose bengal and the light beam, which is preferably a laser light beam.
A tunable argon ion laser (a Lexel Model 95 argon ion laser, manufactured by Cooper LaserSonics, Santa Clara, Calif.), operated at 514.5 nm, was used for the irradiation. The argon ion laser was focused according to a derived criterion (described below) to facilitate maximally efficient intraluminal growth of the occlusive thrombus. The middle cerebral artery was irradiated with 7.5 mW delivered either continuously or via a beam-chopper operated at 200 Hz (with 75 mW peak power, 10% duty cycle). The carotid and femoral arteries were each irradiated with a chopped beam at 1 W average power (2 W peak power chopped at 200 Hz and 50% duty cycle). […] The middle cerebral artery (diameter approximately 200 μm) was irradiated through a spherical lens of 39-cm focal length at a distance of 40 cm from the artery; with correction for optical reflection losses, the incident intensity was 16 W/sq cm. The femoral artery (diameter 670 μm) and common carotid artery (diameter 800 μm) were irradiated through a spherical lens of 61-cm focal length at distances of 42 and 26 cm from the artery, respectively. In each case, the average incident intensity, with correction for irradiation geometry, was approximately 160 W/sq cm.
A stock solution of rose bengal dye, 30 mg/ml in 0.9% saline, was made up for intravenous injection (via the tail vein) at a dose of 40 mg/kg. Before dye injection, the contralateral (control) arteries were irradiated for 15 minutes at the stated intensities. Following this, simultaneous intravenous infusion of the rose bengal solution (at 20 mg/kg/min over 2 minutes) and irradiation of the ipsilateral artery was begun. Five rats were used for common carotid artery irradiation and four for femoral artery irradiation. In the latter case, two rats received only 20 mg/kg. Middle cerebral artery irradiation was performed in a large series of approximately 70 animals.

## O=C([O-])c1c(Cl)c(Cl)c(Cl)c(Cl)c1-c1c2cc(I)c(=O)c(I)c-2oc2c(I)c([O-])c(I)cc12.[Na+].[Na+] [rose bengal]
Common carotid artery; 40 mg/kg i.v.
  complete occlusion, irradiation time: ≤ 3 min
Common carotid artery
  energy fluence at occlusion: about 35 kJ/sq cm
  total energy deposited at occlusion: 140 to 180 joules (J)
[1]; four weeks
  goblet cells on the cornea: no goblet cells were noted
  histology of epithelium: stratified cornea-like epithelium
[1]; one week
  goblet cell density, cytology: decreased goblet cell density
[1]; one week, impression cytology
  epithelial N/C ratio: slight increase
[1]; treated areas, four days
  goblet cell density: remarkably decreased
Corneal neovasculature; 60 mg/kg (45 mg/kg plus booster 15 mg/kg 25 minutes later), individual rabbit
  No. of Laser Shots: 86 and 106
Corneal neovasculature; 21 days after laser
  treated corneal vessels occluded: about 95%
Corneal neovasculature; 21 days after laser, nine treated eyes
  fluorescein perfusion: complete lack of perfusion
Corneal neovasculature; average
  laser shots required, average: 85 laser shots per quadrant
Corneal neovasculature; each segment
  laser shots to vessel constriction: one to three
Corneal neovasculature; rabbit, in vivo
  acute and chronic inflammatory cells: mild to moderate numbers
  corneal edema or polymorphonuclear leukocyte infiltration: does not produce corneal edema or polymorphonuclear leukocyte infiltration
  inflammation along limbal vessels: No signs of inflammation
  new vessels formed in response to treatment: nor were any new vessels formed
Corneal neovasculature; range
  laser shots required to occlude the corneal neovasculature: 58 to 106 laser shots per quadrant
Corneal neovasculature; vs photocoagulation
  times less incident intensity than photocoagulation: 8.5 times
  times less total light exposure than photocoagulation: 27.5 times
arteries; 35 kJ/sq cm large arteries, 3.5 kJ/sq cm small arteries
  time to occlusion: ≤ 3 min
arteries; [2]
  distal extension of mixture of red blood cells and coagulum: at least 10 arterial diameters
  thrombus composition: thrombus of mixed character
arteries; irradiated arteries of rats injected with rose bengal solution
  photochemically induced thrombotic occlusion: always observed
